Like-named read-outs stand apart in the source and are kept apart here.
Assays:
[1] = test system: HSJD-ES-033 Ewing sarcoma; assay: Antitumor activity in Ewing sarcoma PDX HSJD-ES-033; format: in vivo, mouse; conditions: single treatment (FIG. 24E,G)
Protocol: Patient-derived xenograft (PDX) of Ewing sarcoma (pediatric solid tumor) were implanted subcutaneously into athymic nude mice. Tumor model was HSJD-ES-033. Upon engraftment (tumor volumes ranging 100-500 mm^3), combination treatment in which topotecan was administered systemically (intraperitoneal) at a concentration of 0.6 mg/kg/day, on Days 1, 2, 3, 4 and 5, and a single dose of 3×10^9 vp/tumor VCN-01 was administered intratumorally on Day 1, was compared to either of the treatments alone.
Antitumor activity in extracranial pediatric solid tumors. 5-10 mm^3 fresh fragments of Ewing sarcoma or neuroblastoma PDX were implanted in both flanks of mice. Upon s.c. engraftment (tumor volume 150-200 mm^3), mice received topotecan (0.6 mg/kg, i.p., days 1-5), VCN-01 (3×10^9 vp in 20 µL vehicle, intratumoral, day 1), or the combination. In two additional groups, an alternative topoisomerase 1 inhibitor, irinotecan (10 mg/kg, i.p., on days 1-5) we used in place of topotecan. Upon completion of treatments, tumor volumes were followed until endpoint (1500 mm^3), or until day 80.

[2] = test system: HSJD-RBT-5 retinoblastoma cells; assay: cells; format: cell-based; conditions: Homo sapiens
[3] = cited from earlier work
[4] = test system: HSJD-RBT-2 retinoblastoma cells; assay: Antiproliferative activity (MTS), HSJD-RBT-2; format: cell-based; conditions: Homo sapiens
[5] = Accumulation of topotecan in VCN-01-infected retinoblastoma; format: in vivo, mouse
From the text: Accumulation of topotecan in VCN-01-infected retinoblastoma. The Animal Experimental Ethics Committee at the University of Barcelona (animal protocol number 482/18) approved animal experimentation. Retinoblastoma cells in the eyes of athymic nude mice (Envigo, Barcelona, Spain), as previously described (Pascual-Pasto et al., 2016). After 14 days, VCN-01 (3×10^9 vp/eye) was inoculated. After another 14 days, s.c. osmotic pumps loaded with topotecan were implanted to achieve constant topotecan in plasma, as described previously (Pascual-Pasto et al., “Increased delivery of chemotherapy to the vitreous by inhibition of the blood-retinal barrier,” J Control Release 2017; 264:34-44), and collected tumor samples for analysis of topotecan.
Animal experiments were carried out following institutional and European guidelines (EU Directive 2010/63/EU) and the ARRIVE guidelines ([…]). Retinoblastoma cells (2×10^5) were inoculated into the posterior segment of the eye of six week old athymic nude mice using a dull 33G needle, as previously described (Giani et al., 1994). […] Samples were analyzed by high performance liquid chromatography (HLPC) as described previously ([…]).

[6] = test system: CDKN1A; format: cell-based, human; conditions: RBT-7 cells pre-infected with VCN-01; topotecan 2 μM (FIG. 17F)
Protocol: (§1) To assess the expression of genes involved in the cell cycle, 6-well culture plates containing 2×10^6 retinoblastoma cells were used. VCN-01 was added at 50 MOI for 48 h, followed by the addition of topotecan (2 μM), […] (12.5 μM) or culture medium. The cell pellets were collected 24 h later. The samples were plated in the TaqMan® Array of Human Cyclins & Cell Cycle Regulation (Thermo Fisher Scientific). This array contains 92 assays of cell cycle-associated genes and assays of GAPDH, 18S, HPRT1 and GUSB as endogenous control genes. the threshold cycle (Ct) value ≥35 was established as absence of expression. The mean expression value of the controls was used to normalize gene expression values. The thresholds for upregulation and downregulation were 2^−ΔΔCt≥2.0 and 2^−ΔΔct≤0.5, respectively (Livak and Schmittgen, “Analysis of relative gene expression data using real-time quantitative PCR and the 2 (−Delta Delta C(T)) Method,” Methods 2001; 25(4):402-8).
(§2) SYBR primers were CDKN1A (Forward 5′-GGACAGGAGAGGAAGACCATGT-3′ (SEQ ID NO: 15), Reverse 5′-TGGAGTGGTAGAATTCTGTCATGC-3′ (SEQ ID NO: 16) and CDK6 (Forward 5′-CCAGGCAGGCTTTTCATTCA-3′ (SEQ ID NO: 17), Reverse 5′-AGGTCCTGGAAGTATGGGTG-3′ (SEQ ID NO: 18).

[7] = test system: E2F-1, p21 and cyclin E1; format: cell-based
[8] = test system: retinoblastoma cells; format: cell-based; conditions: infection of retinoblastoma cells with VCN-01
[9] = test system: HSJD-RBT-7 retinoblastoma cells; assay: cells; format: cell-based; conditions: Homo sapiens
[10] = test system: Y79 cells and primary retinoblastoma cultures; format: cell-based
[11] = test system: Y79 cells; assay: Cell cycle of retinoblastoma cells (propidium iodide cytometry); format: cell-based
Protocol: Then, the cells were collected and fixed in 70% ethanol for 2 h. The propidium iodide (PI)-based assay FxCycle™ PI/RNase (Thermo Fisher Scientific) was used as staining solution prior to quantification by flow cytometry (NovoCyte).

[12] = test system: CDK6; assay: Cell cycle gene expression array, CDK6; format: cell-based, human; conditions: RBT-7 cells pre-infected with VCN-01; topotecan 2 μM (FIG. 17F)
Protocol: as §1, §2

[13] = read-out: IC50, Topotecan single agent
[14] = read-out: IC50, Topotecan with VCN-01 (10 MOI)

Compound: CC[C@@]1(O)C(=O)OCc2c1cc1n(c2=O)Cc2cc3c(CN(C)C)c(O)ccc3nc2-1 [Topotecan, topotecan]
- response of xenograft to single treatment [1]: highly resistant
- IC50 [2, 13]: 0.0879 µM
- IC50 [2, 14]: 0.586 µM
- ocular toxicity ([3]; all routes of administration): minimal
- passage to the vitreous ([3]; given intravenously and intraarterially): favorable passage to the vitreous
- IC50 [4, 13]: 0.00738 µM
- IC50 [4, 14]: 0.0507 µM
- biodistribution of topotecan in intraocular tumors ([5]; concomitant treatment with VCN-01 (FIG. 21)): did not change
- concentration at 6 h ([5]; mouse, in vivo, sc, 25 ug/h, osmotic pump, 25 μg/h, athymic nude mice, read-out: topotecan plasma level at steady state): ~0.1 µg/mL
- increase in expression of CDKN1A [6]: 10 fold
- duration of E2F-1, p21 and cyclin E1 increase ([7]; FIG. 17D): at least 48 h
- protein expression of E2F-1, p21 and cyclin E1 ([7]; Y79 cells (FIG. 17D)): increased protein expression of E2F-1, p21 and cyclin E1
- onset of E2F-1, p21 and cyclin E1 increase ([7]; after exposure (FIG. 17D)): 1 h
- cell sensitivity to drug after VCN-01 infection [8]: decreased cell sensitivity
- IC50 [9, 13]: 0.0151 µM
- IC50 [9, 14]: 0.118 µM
- transgene expression, virus first ([10]; cells pre-infected with AdTLRGDK (FIG. 18E, FIG. 19A)): increased transgene expression
- viral transduction, drug first ([10]; drug exposure before viral infection (FIG. 18E)): did not enhance viral transduction
- percentage of cells in S-phase ([11]; 24 h (FIG. 17A)): increased the percentage of cells in S-phase
- duration of S-phase effect ([11]; topotecan 2 μM (FIG. 17B,C)): at least 48 h
- decrease in expression of CDK6 [12]: 15 fold
